Source: ChEMBL document CHEMBL4152189, “Incorporation of nitric oxide donor into 1,3-dioxyxanthones leads to synergistic anticancer activity” (Eur J Med Chem, 2018)

What was measured:
[1] = tested on: HepG2; experiment: Growth inhibition of human HepG2 cells after 24 hrs by MTT assay; type: functional, cell-based; details: HepG2, 24 h
[2] = tested on: MDA-MB-231; experiment: Growth inhibition of human MDA-MB-231 cells after 24 hrs by MTT assay; type: functional, cell-based; details: MDA-MB-231, 24 h
[3] = tested on: MCF7; experiment: Growth inhibition of human MCF7 cells after 24 hrs by MTT assay; type: functional, cell-based; details: MCF7, 24 h
[4] = tested on: HepG2; experiment: Induction of NO generation in human HepG2 cells assessed as nitrite levels at 0.66 uM after 1 hr by Griess assay (reference value: 12.9 +/- 1.5 uM); type: functional
[5] = tested on: HepG2; experiment: Induction of NO generation in human HepG2 cells assessed as nitrite levels at 0.66 uM after 3 hrs by Griess assay (reference value: 12.8 +/- 1.5 uM); type: functional
[6] = tested on: HepG2; experiment: Induction of NO generation in human HepG2 cells assessed as nitrite levels at 0.66 uM after 6 hrs by Griess assay (reference value: 12.6 +/- 1.1 uM); type: functional
[7] = tested on: HepG2; experiment: Induction of NO generation in human HepG2 cells assessed as nitrite levels at 0.66 uM after 12 hrs by Griess assay (reference value: 12.7 +/- 1.8 uM); type: functional
[8] = tested on: HepG2; experiment: Induction of NO generation in human HepG2 cells assessed as nitrite levels at 0.66 uM after 24 hrs by Griess assay (reference value: 12.8 +/- 1.7 uM); type: functional
[9] = tested on: HepG2; experiment: Induction of NO generation in human HepG2 cells assessed as nitrite levels at 0.66 uM after 48 hrs by Griess assay (reference value: 12.8 +/- 1.7 uM); type: functional
[10] = tested on: HepG2; experiment: Induction of NO generation in human HepG2 cells assessed as nitrite levels at 0.66 uM after 60 hrs by Griess assay (reference value: 12.8 +/- 1.5 uM); type: functional
[11] = tested on: L02; experiment: Induction of NO generation in human HL-7702 cells assessed as nitrite levels at 0.66 uM after 1 hr by Griess assay (reference value: 11.6 +/- 1.1 uM); type: functional
[12] = tested on: L02; experiment: Induction of NO generation in human HL-7702 cells assessed as nitrite levels at 0.66 uM after 3 hrs by Griess assay (reference value: 11.6 +/- 1.2 uM); type: functional
[13] = tested on: L02; experiment: Induction of NO generation in human HL-7702 cells assessed as nitrite levels at 0.66 uM after 6 hrs by Griess assay (reference value: 11.8 +/- 1.1 uM); type: functional
[14] = tested on: L02; experiment: Induction of NO generation in human HL-7702 cells assessed as nitrite levels at 0.66 uM after 12 hrs by Griess assay (reference value: 11.8 +/- 1.2 uM); type: functional
[15] = tested on: L02; experiment: Induction of NO generation in human HL-7702 cells assessed as nitrite levels at 0.66 uM after 24 hrs by Griess assay (reference value: 11.6 +/- 1.1 uM); type: functional
[16] = tested on: L02; experiment: Induction of NO generation in human HL-7702 cells assessed as nitrite levels at 0.66 uM after 48 hrs by Griess assay (reference value: 11.6 +/- 1.1 uM); type: functional
[17] = tested on: L02; experiment: Induction of NO generation in human HL-7702 cells assessed as nitrite levels at 0.66 uM after 60 hrs by Griess assay (reference value: 11.8 +/- 1.3 uM); type: functional

Question: With `O=[N+]([O-])OCCCCCO` as the compound, how does the IC50 [1] read?
Answer: Its IC50 is 72.8 µM.

Question: What about the IC50 [2] of the same compound?
Answer: The IC50 was 140 µM.

Question: And the IC50 [3]?
Answer: The IC50 was 102 µM.

Question: And the Activity [4]?
Answer: Its Activity is 16.2 µM.

Question: And the Activity [5]?
Answer: Its Activity is 18.4 µM.

Question: What about the Activity [6] of the same compound?
Answer: Its Activity is 23.3 µM.

Question: What about the Activity [7] of the same compound?
Answer: Its Activity is 26 µM.

Question: And the Activity [8]?
Answer: Its Activity is 29.2 µM.

Question: What about the Activity [9] of the same compound?
Answer: Its Activity is 24.6 µM.

Question: And the Activity [10]?
Answer: Its Activity is 17.1 µM.

Question: And the Activity [11]?
Answer: Its Activity is 13.5 µM.

Question: What about the Activity [12] of the same compound?
Answer: Its Activity is 13.8 µM.

Question: And the Activity [13]?
Answer: The Activity was 16 µM.

Question: And the Activity [14]?
Answer: The Activity was 17.5 µM.

Question: What about the Activity [15] of the same compound?
Answer: The Activity was 14.1 µM.

Question: And the Activity [16]?
Answer: The Activity was 13.4 µM.

Question: What about the Activity [17] of the same compound?
Answer: The Activity was 13.3 µM.
